Measured values as given in ChEMBL document CHEMBL4368907 (J Med Chem, 2019).
Numbered stars: 1 amine (or outer) side, 2 acyl side, 3 side chain; on linkers, the order of the positions; unused ones are H or OH. Square brackets hold non-standard residues; d marks the D form. Side chains are listed from the residue outwards. Peptide text beside a SMILES is read from it. * marks the point of attachment. Phe(4-CH2SO3H) = N[C@@H](Cc1ccc(CS(=O)(=O)O)cc1)C(=O)O; Ala(indol-2-yl) = N[C@@H](Cc1cc2ccccc2[nH]1)C(=O)O; sY = N[C@@H](Cc1ccc(OS(=O)(=O)O)cc1)C(=O)O; C18 diacid = O=C(O)CCCCCCCCCCCCCCCCC(=O)*; NMe1Nal = CN[C@@H](Cc1cccc2ccccc12)C(=O)O; γGlu = O=C(O)[C@H](CCC(=O)[*:2])N[*:1]; Glutaryl = O=C(CCCC(=O)[*:2])[*:1]; NMeF = CN[C@@H](Cc1ccccc1)C(=O)O; NMeD = CN[C@@H](CC(=O)O)C(=O)O; dNMeD = CN[C@H](CC(=O)O)C(=O)O; Nle = CCCC[C@H](N)C(=O)O; X1 = O=C(Cc1ccc(O)cc1)*; Dap = NC[C@H](N)C(=O)O; AEEA = NCCOCCOCC(=O)O; βAla = NCCC(=O)O

Tests used:
[1] = biological target: T1, Cholecystokinin receptor type A (Homo sapiens, UniProt P32238); test: Displacement of [125I]-CCK-8 from human CCK1R expressed in human 1321N1 cell membranes after 2 hrs by SPA assay
T1 sequence (P32238 whole entry): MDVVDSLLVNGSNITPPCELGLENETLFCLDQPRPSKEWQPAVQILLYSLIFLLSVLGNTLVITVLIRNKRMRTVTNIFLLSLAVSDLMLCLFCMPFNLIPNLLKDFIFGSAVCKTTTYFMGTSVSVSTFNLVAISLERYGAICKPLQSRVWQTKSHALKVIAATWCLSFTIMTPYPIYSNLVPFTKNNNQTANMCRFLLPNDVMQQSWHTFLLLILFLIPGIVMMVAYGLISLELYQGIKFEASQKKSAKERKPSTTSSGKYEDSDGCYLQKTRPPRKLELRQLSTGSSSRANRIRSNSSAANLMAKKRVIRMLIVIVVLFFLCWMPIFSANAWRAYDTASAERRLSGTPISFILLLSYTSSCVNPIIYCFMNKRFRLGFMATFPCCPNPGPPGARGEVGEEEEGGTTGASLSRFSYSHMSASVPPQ

[2] = biological target: T1, Cholecystokinin receptor type A; test: Agonist activity at human CCK1R expressed in human 1321N1 cells assessed as IP1 accumulation after 1 hr by HTRF assay; assay type: functional, cell-based
[3] = biological target: T2, Gastrin/cholecystokinin type B receptor (Homo sapiens, UniProt P32239); test: Displacement of [125I]-CCK-8 from human CCK2R expressed in human 1321N1 cell membranes after 2 hrs by SPA assay
T2 sequence (P32239 whole entry): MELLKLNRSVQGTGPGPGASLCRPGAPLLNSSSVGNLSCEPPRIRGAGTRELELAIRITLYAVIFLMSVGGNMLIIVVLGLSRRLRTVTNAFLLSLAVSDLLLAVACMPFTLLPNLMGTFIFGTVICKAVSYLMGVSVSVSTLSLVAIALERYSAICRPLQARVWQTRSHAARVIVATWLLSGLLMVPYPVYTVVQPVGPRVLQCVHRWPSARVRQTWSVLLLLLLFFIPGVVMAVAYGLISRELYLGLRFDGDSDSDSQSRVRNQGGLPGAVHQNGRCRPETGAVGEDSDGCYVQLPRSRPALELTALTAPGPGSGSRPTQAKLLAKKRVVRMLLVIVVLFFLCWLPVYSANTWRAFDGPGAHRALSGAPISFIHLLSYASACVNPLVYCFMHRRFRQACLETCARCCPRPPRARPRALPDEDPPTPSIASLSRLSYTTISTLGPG

[4] = biological target: T2, Gastrin/cholecystokinin type B receptor; test: Agonist activity at human CCK2R expressed in human 1321N1 cells assessed as IP1 accumulation after 1 hr by HTRF assay; assay type: functional, cell-based

SMILES	pIC50 [1]	pEC50 [2]	pIC50 [3]	pEC50 [4]	IC50 [1] [nM]	EC50 [2] [nM]	IC50 [3] [nM]	EC50 [4] [nM]
CCCC[C@H](NC(=O)[C@H](Cc1c[nH]c2ccccc12)NC(=O)CNC(=O)[C@@H](CCCNC(=O)COCCOCCNC(=O)COCCOCCNC(=O)CC[C@H](NC(=O)CCCCCCCCCCCCCCCCC(=O)O)C(=O)O)NC(=O)Cc1ccc(O)cc1)C(=O)N(C)[C@H](CC(=O)O)C(=O)N(C)[C@@H](Cc1ccccc1)C(N)=O	9.3	10.22	5.08	< 6				
CCCC[C@H](NC(=O)[C@H](Cc1c[nH]c2ccccc12)NC(=O)CNC(=O)[C@H](CC(C)C)NC(=O)[C@H](Cc1ccc(OS(=O)(=O)O)cc1)NC(=O)[C@H](CC(=O)O)NC(=O)COCCOCCNC(=O)COCCOCCNC(=O)CC[C@H](NC(=O)CCCCCCCCCCCCCCCCC(=O)O)C(=O)O)C(=O)N[C@@H](CC(=O)O)C(=O)N(C)[C@@H](Cc1ccccc1)C(N)=O					0.0871	0.115	0.288	0.457
CCCC[C@H](NC(=O)[C@H](Cc1cc2ccccc2[nH]1)NC(=O)CNC(=O)[C@H](CCCCNC(=O)COCCOCCNC(=O)COCCOCCNC(=O)CC[C@H](NC(=O)CCCCCCCCCCCCCCCCC(=O)O)C(=O)O)NC(=O)[C@H](Cc1ccc(OS(=O)(=O)O)cc1)NC(=O)[C@H](CC(=O)O)NC(C)=O)C(=O)N(C)[C@@H](CC(=O)O)C(=O)N(C)[C@@H](Cc1ccccc1)C(N)=O (Ac-D[sY]K([AEEA-AEEA-γGlu-C18 diacid])G[Ala(indol-2-yl)][Nle][NMeD][NMeF]-NH2)	10.19	9.61	6.24	6.5				
CCCC[C@H](NC(=O)Cc1ccc(O)cc1)C(=O)NCC(=O)N[C@@H](Cc1c[nH]c2ccccc12)C(=O)N[C@@H](CCCC)C(=O)N(C)[C@@H](CC(=O)O)C(=O)N[C@@H](Cc1ccccc1)C(N)=O (X1-[Nle]GW[Nle][NMeD]F-NH2)					15.5	9.12	3020	195
CCCC[C@H](NC(=O)Cc1ccc(O)cc1)C(=O)NCC(=O)N[C@@H](Cc1c[nH]c2ccccc12)C(=O)N[C@@H](CCCC)C(=O)N(C)[C@@H](CC(=O)O)C(=O)N(C)[C@@H](Cc1ccccc1)C(N)=O (X1-[Nle]GW[Nle][NMeD][NMeF]-NH2)					42.7	8.51	> 10000	> 1000
CCCC[C@H](NC(=O)Cc1ccc(O)cc1)C(=O)NCC(=O)N[C@@H](Cc1c[nH]c2ccccc12)C(=O)N[C@@H](CCCC)C(=O)N(C)[C@H](CC(=O)O)C(=O)N[C@@H](Cc1ccccc1)C(N)=O (X1-[Nle]GW[Nle][dNMeD]F-NH2)					7.08	1.55	> 10000	> 1000
CCCC[C@H](NC(=O)[C@H](Cc1c[nH]c2ccccc12)NC(=O)CNC(=O)[C@H](CC(C)C)NC(=O)[C@@H](NC(=O)[C@H](CC(=O)O)NC(=O)COCCOCCNC(=O)COCCOCCNC(=O)CC[C@H](NC(=O)CCCCCCCCCCCCCCCCC(=O)O)C(=O)O)[C@@H](C)CC)C(=O)N(C)[C@@H](CC(=O)O)C(=O)N(C)[C@@H](Cc1ccccc1)C(N)=O ({C18 diacid-γGlu-AEEA-AEEA}-DILGW[Nle][NMeD][NMeF]-NH2)	8.37	9.41	< 5	< 6				
CCCC[C@H](NC(=O)[C@H](Cc1c[nH]c2ccccc12)NC(=O)CNC(=O)[C@H](CC(C)C)NC(=O)[C@H](Cc1c[nH]c2ccccc12)NC(=O)[C@H](CC(=O)O)NC(=O)COCCOCCNC(=O)COCCOCCNC(=O)CC[C@H](NC(=O)CCCCCCCCCCCCCCCCC(=O)O)C(=O)O)C(=O)N(C)[C@@H](CC(=O)O)C(=O)N(C)[C@@H](Cc1ccccc1)C(N)=O ({C18 diacid-γGlu-AEEA-AEEA}-DWLGW[Nle][NMeD][NMeF]-NH2)	8.57	9.67	5.13	< 6				
CCCC[C@H](NC(=O)[C@H](CNC(=O)CCCC(=O)O)NC(=O)[C@H](CC(=O)O)NC(=O)COCCOCCNC(=O)COCCOCCNC(=O)CC[C@H](NC(=O)CCCCCCCCCCCCCCCCC(=O)O)C(=O)O)C(=O)NCC(=O)N[C@@H](Cc1c[nH]c2ccccc12)C(=O)N[C@@H](CCCC)C(=O)N[C@@H](CC(=O)O)C(=O)N[C@@H](Cc1ccccc1)C(N)=O ({C18 diacid-γGlu-AEEA-AEEA}-D[Dap](Glutaryl)[Nle]GW[Nle]DF-NH2)					832	229	5.75	0.38
CCCC[C@H](NC(=O)[C@H](Cc1c[nH]c2ccccc12)NC(=O)CNC(=O)[C@H](CC(C)C)NC(=O)[C@H](Cc1ccc(CS(=O)(=O)O)cc1)NC(=O)[C@H](CC(=O)O)NC(=O)COCCOCCNC(=O)COCCOCCNC(=O)CC[C@H](NC(=O)CCCCCCCCCCCCCCCCC(=O)O)C(=O)O)C(=O)N[C@@H](CC(=O)O)C(=O)N[C@@H](Cc1ccccc1)C(N)=O ({C18 diacid-γGlu-AEEA-AEEA}-D[Phe(4-CH2SO3H)]LGW[Nle]DF-NH2)					0.245	0.0676	0.891	0.447
CCCC[C@H](NC(=O)[C@H](Cc1c[nH]c2ccccc12)NC(=O)CNC(=O)[C@H](CCC(=O)O)NC(=O)[C@H](Cc1ccc(OS(=O)(=O)O)cc1)NC(=O)[C@H](CC(=O)O)NC(=O)COCCOCCNC(=O)COCCOCCNC(=O)CC[C@H](NC(=O)CCCCCCCCCCCCCCCCC(=O)O)C(=O)O)C(=O)N[C@@H](CC(=O)O)C(=O)N[C@@H](Cc1ccccc1)C(N)=O ({C18 diacid-γGlu-AEEA-AEEA}-D[sY]EGW[Nle]DF-NH2)					1.26	0.166	0.158	0.295
CC(C)C[C@H](NC(=O)[C@H](Cc1ccc(OS(=O)(=O)O)cc1)NC(=O)[C@H](CC(=O)O)NC(=O)COCCOCCNC(=O)COCCOCCNC(=O)CC[C@H](NC(=O)CCCCCCCCCCCCCCCCC(=O)O)C(=O)O)C(=O)NCC(=O)N[C@@H](Cc1c[nH]c2ccccc12)C(=O)N[C@@H](Cc1ccccc1)C(=O)N(C)[C@@H](CC(=O)O)C(=O)N(C)[C@@H](Cc1ccccc1)C(N)=O ({C18 diacid-γGlu-AEEA-AEEA}-D[sY]LGWF[NMeD][NMeF]-NH2)	7.79	8.79	< 5	< 6				
CCCC[C@H](NC(=O)[C@H](Cc1c[nH]c2ccccc12)NC(=O)CNC(=O)[C@H](CC(C)C)NC(=O)[C@H](Cc1ccc(OS(=O)(=O)O)cc1)NC(=O)[C@H](CC(=O)O)NC(=O)COCCOCCNC(=O)COCCOCCNC(=O)CC[C@H](NC(=O)CCCCCCCCCCCCCCCCC(=O)O)C(=O)O)C(=O)N1CCC[C@H]1C(=O)N(C)[C@@H](Cc1ccccc1)C(N)=O ({C18 diacid-γGlu-AEEA-AEEA}-D[sY]LGW[Nle]P[NMeF]-NH2)	7.39	6.61	5.27	< 6				
CCCC[C@H](NC(=O)[C@H](Cc1c[nH]c2ccccc12)NC(=O)CNC(=O)[C@H](CC(C)C)NC(=O)[C@H](Cc1ccc(OS(=O)(=O)O)cc1)NC(=O)[C@H](CC(=O)O)NC(=O)COCCOCCNC(=O)COCCOCCNC(=O)CC[C@H](NC(=O)CCCCCCCCCCCCCCCCC(=O)O)C(=O)O)C(=O)N(C)[C@@H](CC(=O)O)C(=O)N(C)[C@@H](Cc1cccc2ccccc12)C(N)=O ({C18 diacid-γGlu-AEEA-AEEA}-D[sY]LGW[Nle][NMeD][NMe1Nal]-NH2)					0.115	0.501	603	16.6
CCCC[C@H](NC(=O)[C@H](Cc1c[nH]c2ccccc12)NC(=O)CCNC(=O)[C@H](CC(C)C)NC(=O)[C@H](Cc1ccc(OS(=O)(=O)O)cc1)NC(=O)[C@H](CC(=O)O)NC(=O)COCCOCCNC(=O)COCCOCCNC(=O)CC[C@H](NC(=O)CCCCCCCCCCCCCCCCC(=O)O)C(=O)O)C(=O)N[C@@H](CC(=O)O)C(=O)N[C@@H](Cc1ccccc1)C(N)=O ({C18 diacid-γGlu-AEEA-AEEA}-D[sY]L[βAla]W[Nle]DF-NH2)					219	117	0.398	0.316
